Experimental data reported in PMC12476453, “Chemosensation of the pheromone spermine by the olfactory TAAR-like receptor TAAR348” (Cell Discovery, 2025).

Target: T1, TAAR348 (Petromyzon marinus, UniProt A0A678XLR1)
T1 construct: TAAR-like GPCR overexpressed in HEK293 cells with Gs BRET2 sensors; cryo-EM complex with Gs (Gαs, Gβ, Gγ), NB35 and ScFv16; construct details only in supplement
T1 sequence (A0A678XLR1 1-348): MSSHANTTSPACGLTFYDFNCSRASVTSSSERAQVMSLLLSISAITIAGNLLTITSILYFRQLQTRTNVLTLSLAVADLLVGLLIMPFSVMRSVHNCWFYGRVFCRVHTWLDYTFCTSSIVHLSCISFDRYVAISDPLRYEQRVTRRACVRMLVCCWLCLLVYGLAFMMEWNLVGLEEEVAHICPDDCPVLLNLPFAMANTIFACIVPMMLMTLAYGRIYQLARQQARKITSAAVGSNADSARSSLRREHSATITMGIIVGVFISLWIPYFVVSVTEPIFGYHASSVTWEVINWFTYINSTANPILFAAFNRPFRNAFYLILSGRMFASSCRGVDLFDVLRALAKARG
Assay: BRET2 G protein trimer dissociation assay (Gs)
Assay type: cell-based

Q: With `NCCCNCCCCNCCCN` [spermine] as the compound, how does the EC50 read?
A: 155 ± 6.9 nM
